Source: ChEMBL document CHEMBL1201862, “PubChem BioAssay data set” (2004)
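Results reflect a 48-hour exposure of cells in 96-well plates to compound at five concentrations. GI50 marks 50% less growth.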 The source made the active and inactive calls. No stated cut-off is given here; in the data, active = GI50 up to about 1.1 µM and inactive = higher.

Tests used:
Experiment in all cases: growth of human tumour cells (NCI), 48 h
[1] = test system: NCI-H460
[2] = test system: HCC 2998
[3] = test system: SK-MEL-2
[4] = test system: HOP-62
[5] = test system: OVCAR-8
[6] = test system: RPMI-8226
[7] = test system: SNB-19
[8] = test system: IGROV-1
[9] = test system: PC-3
[10] = test system: M14
[11] = test system: KM12
[12] = test system: MCF7
[13] = test system: NCI-H522
[14] = test system: CAKI-1
[15] = test system: OVCAR-3
[16] = test system: TK-10
[17] = test system: OVCAR-4
[18] = test system: UO-31
[19] = test system: SF-539
[20] = test system: K562
[21] = test system: HCT-15
[22] = test system: COLO 205
[23] = test system: A498
[24] = test system: HCT-116
[25] = test system: T47D
[26] = test system: U-251
[27] = test system: MDA-MB-231
[28] = test system: MDA-MB-435
[29] = test system: NCI-H226
[30] = test system: SF-295
[31] = test system: MOLT-4
[32] = test system: HT-29
[33] = test system: BT-549
[34] = test system: 786-0
[35] = test system: SR
[36] = test system: A549
[37] = test system: UACC-257
[38] = test system: SK-OV-3
[39] = test system: DU-145
[40] = test system: SF-268
[41] = test system: Hs-578T
[42] = test system: SK-MEL-5
[43] = test system: SN12C
[44] = test system: UACC-62
[45] = test system: NCI/ADR-RES
[46] = test system: ACHN
[47] = test system: MDA-N
[48] = test system: CCRF-CEM
[49] = test system: SNB-75
[50] = test system: EKVX
[51] = test system: NCI-H23
[52] = test system: Malme-3M
[53] = test system: RXF 393
[54] = test system: OVCAR-5
[55] = test system: HL-60
[56] = test system: LOX IMVI
[57] = test system: HOP-92
[58] = test system: SK-MEL-28
[59] = test system: SW-620

For `Cc1cc(N(CCC#N)CCC#N)ccc1C(/N=N/c1ccc(Cl)cc1)=N\NC(=O)c1cc(Cl)ccc1O`, the GI50 [1] was 27.9 µM (inactive), the GI50 [2] was 29.9 µM (inactive) and the GI50 [3] was 67 µM (inactive). For the same molecule, the GI50 [4] was 20.5 µM (inactive), the GI50 [5] was 35.6 µM (inactive) and the GI50 [6] was > 100 µM (inactive). The GI50 [7] was 25.1 µM (inactive), the GI50 [8] was 30.6 µM (inactive) and the GI50 [9] was 35.2 µM (inactive). The GI50 [10] was > 100 µM (inactive), the GI50 [11] was 58.9 µM (inactive) and the GI50 [12] was 29.4 µM (inactive). For the same molecule, the GI50 [13] was 16.7 µM (inactive), the GI50 [14] was > 100 µM (inactive) and the GI50 [15] was 19.1 µM (inactive). The GI50 [16] was 30 µM (inactive), the GI50 [17] was 27.1 µM (inactive) and the GI50 [18] was 64.4 µM (inactive). The GI50 [19] was 25 µM (inactive), the GI50 [20] was 76.2 µM (inactive) and the GI50 [21] was 39.4 µM. For the same molecule, the GI50 [22] was 47.9 µM (inactive), the GI50 [23] was 29.1 µM (inactive) and the GI50 [24] was 71.4 µM (inactive). For the same molecule, the GI50 [25] was 31.6 µM (inactive), the GI50 [26] was 37.1 µM (inactive) and the GI50 [27] was 30.8 µM (inactive). The GI50 [28] was > 100 µM (inactive), the GI50 [29] was 28.7 µM (inactive) and the GI50 [30] was 22.8 µM (inactive). The GI50 [31] was 53.5 µM (inactive), the GI50 [32] was 45.9 µM (inactive) and the GI50 [33] was 36.7 µM (inactive). For the same molecule, the GI50 [34] was 30.6 µM (inactive), the GI50 [35] was 38.7 µM (inactive) and the GI50 [36] was 31.3 µM (inactive). The GI50 [37] was 72.8 µM (inactive), the GI50 [38] was 34.8 µM (inactive) and the GI50 [39] was > 100 µM (inactive). For the same molecule, the GI50 [40] was 27.7 µM (inactive), the GI50 [41] was 19.5 µM (inactive) and the GI50 [42] was > 100 µM (inactive). For the same molecule, the GI50 [43] was 70.5 µM (inactive), the GI50 [44] was 43.3 µM (inactive) and the GI50 [45] was 52.8 µM (inactive). The GI50 [46] was 32.4 µM (inactive), the GI50 [47] was > 100 µM (inactive) and the GI50 [48] was 37 µM (inactive). The GI50 [49] was 30.1 µM (inactive), the GI50 [50] was 36.4 µM (inactive) and the GI50 [51] was 40.2 µM (inactive). For the same molecule, the GI50 [52] was 62.7 µM (inactive), the GI50 [53] was 22.2 µM (inactive) and the GI50 [54] was > 100 µM (inactive).
For `CC(=O)N(C(=O)CC(=O)N1N=C(C)C(/N=N/c2cccc([N+](=O)[O-])c2)C1=O)c1ccc(Cl)cc1` (configuration not stated), the GI50 [2] was > 10 µM (inactive), the GI50 [4] was > 10 µM (inactive) and the GI50 [5] was > 10 µM (inactive). For the same molecule, the GI50 [6] was > 10 µM (inactive), the GI50 [7] was > 10 µM (inactive) and the GI50 [8] was > 10 µM (inactive). The GI50 [9] was > 10 µM (inactive), the GI50 [10] was > 10 µM (inactive) and the GI50 [11] was > 10 µM (inactive). The GI50 [12] was > 10 µM (inactive), the GI50 [13] was > 10 µM (inactive) and the GI50 [14] was > 10 µM (inactive). The GI50 [15] was > 10 µM (inactive), the GI50 [16] was > 10 µM (inactive) and the GI50 [17] was > 10 µM (inactive). For the same molecule, the GI50 [19] was > 10 µM (inactive), the GI50 [20] was > 10 µM (inactive) and the GI50 [21] was greater than 10 µM. For the same molecule, the GI50 [22] was > 10 µM (inactive), the GI50 [55] was > 10 µM (inactive) and the GI50 [24] was > 10 µM (inactive). The GI50 [25] was > 10 µM (inactive), the GI50 [26] was > 10 µM (inactive) and the GI50 [56] was > 10 µM (inactive). For the same molecule, the GI50 [57] was > 10 µM (inactive), the GI50 [27] was > 10 µM (inactive) and the GI50 [28] was > 10 µM (inactive). For the same molecule, the GI50 [30] was > 10 µM (inactive), the GI50 [32] was > 10 µM (inactive) and the GI50 [33] was > 10 µM (inactive). The GI50 [34] was > 10 µM (inactive), the GI50 [35] was > 10 µM (inactive) and the GI50 [36] was > 10 µM (inactive). The GI50 [37] was > 10 µM (inactive), the GI50 [38] was > 10 µM (inactive) and the GI50 [39] was > 10 µM (inactive). The GI50 [40] was > 10 µM (inactive), the GI50 [41] was > 10 µM (inactive) and the GI50 [42] was > 10 µM (inactive). The GI50 [43] was > 10 µM (inactive), the GI50 [44] was > 10 µM (inactive) and the GI50 [45] was > 10 µM (inactive). For the same molecule, the GI50 [46] was > 10 µM (inactive), the GI50 [47] was > 10 µM (inactive) and the GI50 [48] was > 10 µM (inactive). For the same molecule, the GI50 [49] was > 10 µM (inactive), the GI50 [58] was > 10 µM (inactive) and the GI50 [59] was > 10 µM (inactive). The GI50 [51] was 7.03 µM (inactive), the GI50 [52] was > 10 µM (inactive) and the GI50 [54] was > 10 µM (inactive).
`Cc1ccc(/C=C/C(=O)Oc2ccc(/C=C3\CCC/C(=C\c4ccc(OC(=O)/C=C/c5ccc(C)cc5)cc4)C3=O)cc2)cc1` was tested, and the GI50 [1] was > 100 µM (inactive), the GI50 [2] was > 100 µM (inactive) and the GI50 [3] was 48.3 µM (inactive). The GI50 [4] was 29.1 µM (inactive), the GI50 [5] was 67.1 µM (inactive) and the GI50 [6] was > 100 µM (inactive). The GI50 [7] was 56.8 µM (inactive), the GI50 [9] was > 100 µM (inactive) and the GI50 [10] was > 100 µM (inactive). The GI50 [11] was > 100 µM (inactive), the GI50 [12] was > 100 µM (inactive) and the GI50 [13] was > 100 µM (inactive). The GI50 [14] was 79.8 µM (inactive), the GI50 [15] was > 100 µM (inactive) and the GI50 [16] was 31.4 µM (inactive). The GI50 [17] was > 100 µM (inactive), the GI50 [18] was > 100 µM (inactive) and the GI50 [19] was 21.3 µM (inactive). For the same molecule, the GI50 [21] was greater than 100 µM, the GI50 [22] was > 100 µM (inactive) and the GI50 [55] was 57.4 µM (inactive). For the same molecule, the GI50 [24] was > 100 µM (inactive), the GI50 [25] was 92.3 µM (inactive) and the GI50 [26] was 34 µM (inactive). The GI50 [56] was > 100 µM (inactive), the GI50 [57] was 77.6 µM (inactive) and the GI50 [27] was 28.8 µM (inactive). For the same molecule, the GI50 [28] was > 100 µM (inactive), the GI50 [30] was 25.1 µM (inactive) and the GI50 [31] was > 100 µM (inactive). The GI50 [32] was > 100 µM (inactive), the GI50 [33] was > 100 µM (inactive) and the GI50 [34] was 16.7 µM (inactive). The GI50 [35] was 27.5 µM (inactive), the GI50 [36] was > 100 µM (inactive) and the GI50 [37] was > 100 µM (inactive). The GI50 [39] was > 100 µM (inactive), the GI50 [40] was > 100 µM (inactive) and the GI50 [41] was 19 µM (inactive). For the same molecule, the GI50 [42] was > 100 µM (inactive), the GI50 [43] was > 100 µM (inactive) and the GI50 [44] was 74.1 µM (inactive). For the same molecule, the GI50 [45] was 59.3 µM (inactive), the GI50 [46] was 37.3 µM (inactive) and the GI50 [47] was > 100 µM (inactive). For the same molecule, the GI50 [48] was 60.8 µM (inactive), the GI50 [49] was 14.2 µM (inactive) and the GI50 [58] was > 100 µM (inactive). The GI50 [59] was > 100 µM (inactive), the GI50 [50] was > 100 µM (inactive) and the GI50 [51] was > 100 µM (inactive). For the same molecule, the GI50 [54] was > 100 µM (inactive).
